{
  "source": "paper PMC11329504",
  "about": "“Identification of novel small molecule-based strategies of COL7A1 upregulation and readthrough activity for the treatment of recessive dystrophic epidermolysis bullosa” (Scientific Reports, 2024)",
  "key": {"Syk": {"target": "Syk (Homo sapiens, UniProt P43405)", "assay": "Enzymatic Syk kinase activity", "assay_type": "biochemical", "conditions": "dose-response curves; read-out: IC50 ± SD, Syk", "description": "(§1) Enzymatic Syk kinase activity assays were performed as previously described. Enzymatic activity of JAK1, JAK2, JAK3, and Tyk kinases was evaluated as previously described."}, "JAK2": {"target": "JAK2 (Homo sapiens, UniProt O60674)", "sequence (O60674 whole entry, species assumed)": "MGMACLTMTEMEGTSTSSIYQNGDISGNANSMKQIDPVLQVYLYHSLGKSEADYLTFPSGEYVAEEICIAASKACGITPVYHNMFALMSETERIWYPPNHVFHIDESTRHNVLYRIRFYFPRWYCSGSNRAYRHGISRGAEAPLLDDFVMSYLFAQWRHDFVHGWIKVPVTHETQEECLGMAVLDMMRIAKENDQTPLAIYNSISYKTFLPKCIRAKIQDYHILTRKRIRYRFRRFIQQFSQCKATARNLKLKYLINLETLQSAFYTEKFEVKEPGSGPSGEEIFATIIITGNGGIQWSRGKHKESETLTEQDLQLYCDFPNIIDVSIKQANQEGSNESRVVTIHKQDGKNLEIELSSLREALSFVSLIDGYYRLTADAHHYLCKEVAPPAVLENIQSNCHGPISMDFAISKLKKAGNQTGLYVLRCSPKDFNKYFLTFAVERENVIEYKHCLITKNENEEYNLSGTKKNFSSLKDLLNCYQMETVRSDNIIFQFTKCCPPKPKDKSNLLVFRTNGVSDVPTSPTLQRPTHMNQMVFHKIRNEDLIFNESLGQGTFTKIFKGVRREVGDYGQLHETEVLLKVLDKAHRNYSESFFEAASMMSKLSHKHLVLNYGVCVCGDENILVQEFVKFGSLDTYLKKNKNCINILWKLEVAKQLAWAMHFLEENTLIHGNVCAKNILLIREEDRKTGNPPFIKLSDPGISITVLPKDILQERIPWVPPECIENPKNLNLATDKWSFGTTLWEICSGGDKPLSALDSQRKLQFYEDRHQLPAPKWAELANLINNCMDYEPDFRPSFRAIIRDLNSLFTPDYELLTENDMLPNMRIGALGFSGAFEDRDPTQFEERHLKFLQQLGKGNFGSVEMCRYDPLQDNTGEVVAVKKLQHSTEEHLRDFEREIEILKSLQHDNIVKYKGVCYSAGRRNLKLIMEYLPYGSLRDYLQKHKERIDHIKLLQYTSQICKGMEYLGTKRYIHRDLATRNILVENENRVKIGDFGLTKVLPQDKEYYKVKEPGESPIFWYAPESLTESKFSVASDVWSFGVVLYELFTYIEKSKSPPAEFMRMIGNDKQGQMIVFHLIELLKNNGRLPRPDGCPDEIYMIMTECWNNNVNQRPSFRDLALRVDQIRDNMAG", "assay": "Enzymatic JAK2 kinase activity", "assay_type": "biochemical", "conditions": "dose-response curves; read-out: IC50 ± SD, JAK2", "description": "as §1"}, "[1]": {"system": "COL7A1 mRNA in RDEB_L1 and RDEB_L5 cells", "assay": "Real-time qPCR of COL7A1 mRNA", "assay_type": "cell-based, human", "conditions": "24 h, 20 ng/mL TGFβ2", "description": "For real-time qPCR, 15,000 RDEB keratinocytes or normal human epidermal keratinocytes were plated in a 96-well cell culture plate in 80 µL of supplemented KGM medium without GA-1000 and containing 20 ng/mL of TGFβ2 for RDEB keratinocytes, and cells were incubated overnight at 37 °C and 5%CO2. The day after, cells were treated with 20 µL of test compounds prepared 5 × in supplemented KGM without GA-100, for 24 h at 37 °C and 5% CO2. For the mRNA extraction, the medium was removed, cells were washed with PBS, and conserved at -80 °C until the total RNA extraction.\nRNA extraction was conducted using the RNeasy 96 Kit (4) (Qiagen 74181) following the manufacturer’s instructions. Total RNA was recovered in 50 µL of RNase-free water and the yield of extracted RNA was quantified using a NanoDrop 2000 Spectrophotometer (ThermoFisher). Purified RNA was stored at -80 °C until RT-qPCR.\nReal time-qPCR was performed by using the iTaq Universal Probes One-Step Kit, (cat. 1725140, Bio-Rad) and according to the manufacturer’s instructions. […] RT-qPCR was performed to quantify the COL7A1 mRNA (exon 64) expression.\nFor COL7A1 quantitative gene expression, human GAPDH was used as the endogenous control. Results were analyzed with the QuantStudio Real-Time PCR Software."}, "SAPK2α": {"target": "T1, SAPK2α (Homo sapiens, UniProt Q16539)", "T1 construct": "Eurofins Pharma Discovery Services", "assay": "Selectivity panel (Eurofins): p38/SAPK2α kinase", "assay_type": "biochemical"}, "[2]": {"system": "total C7 in HEK293^R578X cells", "assay": "AlphaLISA quantification of total C7 in recombinant HEK293^R578X cells", "assay_type": "cell-based, human", "conditions": "for EC50: Homo sapiens, total C7 AlphaLISA, 48 h, relative EC50, mean ± SD, read-out: Increase in C7 levels EC50", "description": "The AlphaLISA assay was developed in-house by using the biotin-conjugated rabbit polyclonal antibody anti-C7 (LSBio LS-298147) and conjugating the acceptor beads (PerkinElmer 6772001) to a monoclonal anti-Collagen type VII antibody produced in mouse, clone LH7.2 (Thermo MA5-13,432). Formulation of the mAb clone LH7.2 was exchanged to PBS and concentrated 5 × by using Amicon® Ultra-0.5 centrifugal filters up to 1 mg/ml. The conjugation procedure was carried out according to the protocol provided by PerkinElmer.\nFor compound treatment in RDEB patient-derived transformed keratinocytes, 5,000 cells were plated in 20 µL of supplemented KGM media containing 20 ng/mL TGFβ2 (SIGMA GF113) without GA-1000 in 384-well cell culture plates (Greiner 781098). The day after, 5 µL of test compounds prepared 5 × in supplemented KGM without GA-1000 were added over cells and incubated for 48 h at 37 °C and 5% CO2. For compound treatment in HEK293^R578X, 10,000 cells were plated in 20 μL of DMEM (High Glucose, 2 mM L-Glutamine, sodium pyruvate, and FBS 10%) in 384-well cell culture plates (Greiner 781,098,). The day after, 5 μL of test compounds prepared 5 × in DMEM complete medium were added over cells and incubated for 48 h at 37 °C and 5% CO2.\nAfter the treatment process, 2.5 µL of RIPA buffer 10 x (Abcam ab156034) were added over the […] of cells for 20 min at room temperature to obtain a complete cell lysis. Then, 2 μL of sample (i.e., cell lysate with supernatant) were transferred to the AlphaLISA plate (PerkinElmer 6,059,340) containing […] of antibodies mixture ([…] of acceptor Beads-Ab and […] of biotin-rAb) prepared in AlphaLISA buffer 1 x (PerkinElmer AL00F). The reaction was incubated for 90 min at room temperature. Finally, 10 μL of […] of donor beads (PerkinElmer 6760002,) were added to the reaction under subdued light, mixed gently, and incubated for 3 h at room temperature. AlphaLISA signal was detected with an Envision microplate reader (Perkin Elmer) using the following setting: Filter: AlphaScreen, Excitation time: 180 ms, Integration time: 300 ms.\nStatistical analyses were performed using GraphPad Prism v. 7.04 (La Jolla, California). Results are shown as mean ± SD of experimental replicates. Dose–response curves to assess compound treatment effect were plotted in a four-parameter logistic model. Relative EC50, representing the total drug concentration producing a 50% effect, was calculated in the four-parameter logistic equation. Comparisons of collagen protein and mRNA expression in different experimental conditions were made using ANOVA, followed by a post hoc test. statistical significance was considered with p values < 0.05."}, "BZD": {"system": "BZD", "assay": "Selectivity panel (Eurofins): benzodiazepine receptor BZD", "assay_type": "binding", "conditions": "for % inhibition, BZD: n = 1, duplicate"}, "NHK cells": {"system": "NHK cells", "assay": "Cytotoxicity, ATP levels, normal human keratinocytes (NHK)", "assay_type": "cell-based", "conditions": "NHK cells, ATP levels, at 100 µM", "summary_of_the_method": "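RDEB patient-derived cells, CHO cells or normal human keratinocytes were plated and treated as in the AlphaLISA assay. Viability was read as ATP by ATPlite 1step luminescence; 10 μM staurosporine served as the total-cytotoxicity control.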"}, "[3]": {"conditions": "at concentrations of 3 and 10 µM"}},
  "data": [
    {"smiles": "NC(=O)Cn1ccc2ccc(-c3cnc(N)c(C(=O)NC4C5CC6CC4CC(O)(C6)C5)n3)cc21", "note": "(centres unmarked) [Compound 1]", "values": [
      {"measurement": "IC50", "setting": "Syk", "value": "1.72 ± 0.44", "unit": "µM"},
      {"measurement": "IC50", "setting": "JAK2", "value": "0.12 ± 0.06", "unit": "µM"},
      {"measurement": "levels of COL7A1 mRNA (qPCR)", "setting": "[1]", "value": "TGFβ2 was required for full upregulation"}
    ]},
    {"smiles": "C#Cc1cc(-c2ccncc2)c(-c2cccc(F)c2)nc1N", "note": "[Compound 7]", "values": [
      {"measurement": "inhibition at 3 µM", "setting": "SAPK2α; at 3 μM, n = 1, duplicate, read-out: % inhibition, SAPK2α", "value": 90, "unit": "%"},
      {"measurement": "inhibition at 10 µM", "setting": "SAPK2α; at 10 μM, n = 1, duplicate, read-out: % inhibition, SAPK2α", "value": 103, "unit": "%"},
      {"measurement": "inhibition at 30 µM", "setting": "SAPK2α; at 30 μM, n = 1, duplicate, read-out: % inhibition, SAPK2α", "value": 107, "unit": "%"},
      {"measurement": "antagonism/inhibition of p38/SAPK2α kinase", "setting": "SAPK2α; [3]", "value": "≥ 50", "unit": "%"},
      {"measurement": "EC50", "setting": "[2]", "value": "60 ± 4.6", "unit": "µM"},
      {"measurement": "Increase in C7 levels Emax, % vs baseline", "setting": "[2]; at 100 µM", "value": "96 ± 35", "unit": "at 100 % vs baseline"},
      {"measurement": "levels of COL7A1 mRNA (qPCR)", "setting": "[1]", "value": "did not result in an increase in C7 mRNA levels"},
      {"measurement": "% inhibition, BZD", "setting": "BZD; at 3 μM", "value": 48, "unit": "%"},
      {"measurement": "% inhibition, BZD", "setting": "BZD; at 10 μM", "value": 73, "unit": "%"},
      {"measurement": "% inhibition, BZD", "setting": "BZD; at 30 μM", "value": 88, "unit": "%"},
      {"measurement": "antagonism/inhibition of benzodiazepine receptor BZD", "setting": "BZD; [3]", "value": "≥ 50", "unit": "%"},
      {"measurement": "Cytotox. % inhibition of viability", "setting": "NHK cells", "value": "19% ± 11 at 100 (n=4)"}
    ]},
    {"smiles": "CNC(C)C1CCC(N)C(OC2C(N)CC(N)C(OC3OCC(C)(O)C(NC)C3O)C2O)O1", "note": "(centres unmarked) [Gentamicin, reference compound]", "values": [
      {"measurement": "EC50", "setting": "[2]", "value": "4500 ± 2900", "unit": "µM"},
      {"measurement": "Increase in C7 levels Emax, % vs baseline", "setting": "[2]; at 4100 µM", "value": "89 ± 17", "unit": "at 4100 % vs baseline"}
    ]}
  ]
}
